{"source": "paper PMC11091889", "about": "“Silver Organometallics that are Highly Potent Thioredoxin and Glutathione Reductase Inhibitors: Exploring the Correlations of Solution Chemistry with the Strong Antibacterial Effects” (ACS Infectious Diseases, 2024)", "key": {"[1]": {"test": "Conductometry: molar conductivity of silver complexes in DMSO", "assay_type": "physicochemical", "settings": "1.0 mM in DMSO, calculated as monocarbene (NHC)AgX", "description": "Since both the neutral monocarbene and the ionic biscarbene form of the complexes may exist in various proportions in the solution, conductometry studies were performed to reveal the dominant structure. The molar conductivity of 1.0 mM solutions of each complex in DMSO was determined after different periods up to 24 h using AgNO3 as 1:1 electrolyte reference (see Table 1). According to the literature, the expected range of molar conductivity for 1:1 electrolytes in DMSO is 35–90 S cm^2 mol^–1.[45],[46]\nConductivity measurements were performed using an Apera Instruments EC9500 conductivity meter. Solutions (as indicated, otherwise 1.0 mM) of all compounds were prepared using freshly distilled DMSO with a specific electrical conductivity of ≤3 × 10^–8 S cm^–1. The conductivities were measured at 25 ± 2 °C immediately after complete dissolution and after 24 h."}, "[2]": {"tested_on": "E. coli (DSM1116, ATCC 9637)", "test": "microbe, parasite or virus in culture", "assay_type": "cell-based, Escherichia coli", "settings": "n = 3, MHB", "description": "(§1) The antibacterial effect of the silver NHC complexes and selected ligands was evaluated in two Gram-positive [Enterococcus faecium, methicillin resistant S. aureus, (MRSA)] and in four Gram-negative (Acinetobacter baumannii, Escherichia coli, Klebsiella pneumoniae, and Pseudomonas aeruginosa) pathogenic bacterial strains using broth microdilution assays. The resulting minimal inhibitory concentrations (MICs, Table 2) and EC50 (Table S6) were determined by a curve fitting procedure. Silver nitrate (AgNO3), SSD, and various antibiotics were used as references.\n(§2) The following strains of ESKAPE panel were utilized and maintained at 37 °C in MHB (21 g/L Müller Hinton broth, pH 7.4) or TSY (30 g/L trypticase soy broth, 3 g/L yeast extract, pH 7.0–7.2) media: A. baumannii (DSM 30007, ATCC 19606), E. coli (DSM1116, ATCC 9637), K. pneumoniae (DSM 11678, ATCC33495), P. aeruginosa PA7 (DSM 24068) in MHB; E. faecium (DSM 20477, ATCC 19434), and S. aureus MRSA (DSM 11822, ICB 25701) in TSY. MIC values were determined following a standardized protocol in broth microdilution assays. The compounds and reference substances (AgNO3 and SSD) were serially diluted from 64 to 1 μg/mL. Starting inocula of 2–8 × 10^5 CFU/mL in MHB or TSY media at 37 °C were used, and serial dilutions were carried out in 96-well microtiter plates in duplicate. After incubation of the plates for 22 h at 37 °C, the absorbance at 600 nm was measured using The Spark multimode microplate reader (Tecan Trading AG). The MIC values for the tested compounds were determined in three independent experiments and presented in μM with standard errors and also in μg/mL. Amikacin (P. aeruginosa), linezolid (S. aureus), and ciprofloxacin (all other strains) served as positive controls. The MIC and EC50 values were determined by curve fitting with Sigma Plot. To determine the effect of the culture medium on the activity of silver compounds, the assay was performed using MHB, TSY, or DMEM (Gibco). To observe the effect of individual components of TSY medium, antibacterial tests were performed using MHB with addition of tryptone (17 g/L) or yeast extract (3 g/L, both were purchased from Sigma)."}, "[3]": {"tested_on": "P. aeruginosa PA7 (DSM 24068)", "test": "microbe, parasite or virus in culture", "assay_type": "cell-based, Pseudomonas aeruginosa", "description": "as §1, §2"}, "[4]": {"tested_on": "K. pneumoniae (DSM 11678, ATCC33495)", "test": "Broth microdilution antibacterial assay", "assay_type": "cell-based, Klebsiella pneumoniae", "description": "as §1, §2"}, "[5]": {"tested_on": "A. baumannii (DSM 30007, ATCC 19606)", "test": "Broth microdilution antibacterial assay", "assay_type": "cell-based, Acinetobacter baumannii", "description": "as §1, §2"}, "[6]": {"tested_on": "S. aureus MRSA (DSM 11822, ICB 25701)", "test": "microbe, parasite or virus in culture", "assay_type": "cell-based, methicillin resistant S. aureus", "description": "as §1\nThe importance of the culture medium used in antibacterial assays has been pointed out for antibiotics and in particular for silver.[53]−[55] In our recent studies, tryptic soy yeast (TSY) broth has been used for growing Gram-positive bacteria. Two components thereof, tryptone and yeast extract, have been reported to affect the antibacterial activity of silver nitrate.[55] Moreover, such an effect was also observed for other media containing at least one of those components.[11],[53] […] Silver nitrate served as a reference, and three different growth media were studied, namely, Müller-Hinton Broth (MHB, commonly used for Gram-negative bacteria), TSY broth (commonly used for Gram-positive bacteria), and DMEM supplemented with 10% FCS (commonly used for growth of mammalian and human cells).\nas §2"}, "[7]": {"tested_on": "E. faecium (DSM 20477, ATCC 19434)", "test": "Broth microdilution antibacterial assay", "assay_type": "cell-based, Enterococcus faecium", "description": "as §1, §2"}, "[8]": {"settings": "mean ± standard error, n = 3, MHB, 22 h"}, "[9]": {"settings": "mean ± standard error, n = 3, TSY, 22 h"}}, "note": "Like-named read-outs stand apart in the source and are kept apart here."}
{"smiles": "[Br][Ag]=[c]1n(Cc2ccccc2)c2ccccc2n1Cc1ccccn1", "note": "[5b, Bromido (1-(Pyridin-2-ylmethyl)-3-benzyl-benzimidazol-2-ylidene) Silver(I)]", "values": [{"measurement": "Molar conductivity ΛM", "setting": "[1]; 1 h after dissolution", "value": 6.58, "unit": "S cm^2 mol^–^1"}, {"measurement": "Molar conductivity ΛM", "setting": "[1]; 24 h after dissolution", "value": 5.68, "unit": "S cm^2 mol^–^1"}, {"measurement": "EC50", "setting": "[2]; mean ± standard error", "value": "27.1 ± 1.2", "unit": "µM"}, {"measurement": "MIC E. coli", "setting": "[2]; mean ± standard error, 22 h", "value": "32.8 ± 0.0", "unit": "µM"}, {"measurement": "MIC E. coli (value in brackets)", "setting": "[2]; 22 h", "value": 16, "unit": "µg/mL"}, {"measurement": "MIC P. aeruginosa", "setting": "[3]; [8]", "value": "65.7 ± 0.0", "unit": "µM"}, {"measurement": "EC50", "setting": "[3]; mean ± standard error, n = 3, MHB; read-out: EC50 P. aeruginosa", "value": "28.2 ± 2.7", "unit": "µM"}, {"measurement": "MIC P. aeruginosa (value in brackets)", "setting": "[3]; n = 3, MHB, 22 h", "value": 32, "unit": "µg/mL"}, {"measurement": "MIC K. pneumoniae", "setting": "[4]; [8]", "value": "16.4 ± 0.0", "unit": "µM"}, {"measurement": "EC50", "setting": "[4]; mean ± standard error, n = 3, MHB; read-out: EC50 K. pneumoniae", "value": "9.5 ± 0.3", "unit": "µM"}, {"measurement": "MIC K. pneumoniae (value in brackets)", "setting": "[4]; n = 3, MHB, 22 h", "value": 8, "unit": "µg/mL"}, {"measurement": "MIC A. baumannii", "setting": "[5]; [8]", "value": "16.4 ± 0.0", "unit": "µM"}, {"measurement": "EC50", "setting": "[5]; mean ± standard error, n = 3, MHB; read-out: EC50 A. baumannii", "value": "0.72 ± 0.15", "unit": "µM"}, {"measurement": "MIC A. baumannii (value in brackets)", "setting": "[5]; n = 3, MHB, 22 h", "value": 8, "unit": "µg/mL"}, {"measurement": "MIC MRSA", "setting": "[6]; [9]", "value": "131 ± 0.0", "unit": "µM"}, {"measurement": "EC50", "setting": "[6]; mean ± standard error, n = 3, TSY; read-out: EC50 MRSA", "value": "75.5 ± 1.4", "unit": "µM"}, {"measurement": "MIC MRSA (value in brackets)", "setting": "[6]; n = 3, TSY, 22 h", "value": 64, "unit": "µg/mL"}, {"measurement": "MIC E. faecium", "setting": "[7]; [9]", "value": "131 ± 0.0", "unit": "µM"}, {"measurement": "EC50", "setting": "[7]; mean ± standard error, n = 3, TSY; read-out: EC50 E. faecium", "value": "111 ± 0.2", "unit": "µM"}, {"measurement": "MIC E. faecium (value in brackets)", "setting": "[7]; n = 3, TSY, 22 h", "value": 64, "unit": "µg/mL"}]}
{"smiles": "CC(C)[n+]1cn(Cc2ccccn2)c2ccccc21.[I-]", "note": "[L3c, 1-Isopropyl-3-(pyridin-2-ylmethyl)-benzimidazolium Iodide]", "values": [{"measurement": "MIC", "setting": "[2]; Escherichia coli, 22 h, read-out: MIC E. coli (value in brackets)", "value": "> 128", "unit": "µg/mL"}, {"measurement": "EC50", "setting": "[2]; mean ± standard error", "value": "> 250", "unit": "µM"}, {"measurement": "MIC", "setting": "[2]; mean ± standard error, 22 h, read-out: MIC E. coli", "value": "> 250", "unit": "µM"}, {"measurement": "MIC", "setting": "[3]; Pseudomonas aeruginosa, DSM24068, 22 h, read-out: MIC P. aeruginosa (value in brackets), n = 3, MHB, 22 h", "value": "> 128", "unit": "µg/mL"}, {"measurement": "MIC P. aeruginosa", "setting": "[3]; [8]", "value": "≥ 250", "unit": "µM"}, {"measurement": "EC50", "setting": "[3]; read-out: EC50 P. aeruginosa; mean ± standard error, n = 3, MHB", "value": "≥ 250", "unit": "µM"}, {"measurement": "MIC", "setting": "[4]; Klebsiella pneumoniae, 22 h, read-out: MIC K. pneumoniae (value in brackets)", "value": "> 128", "unit": "µg/mL"}, {"measurement": "MIC K. pneumoniae", "setting": "[4]; [8]", "value": "> 250", "unit": "µM"}, {"measurement": "EC50", "setting": "[4]; read-out: EC50 K. pneumoniae; mean ± standard error, n = 3, MHB", "value": "> 250", "unit": "µM"}, {"measurement": "MIC", "setting": "[5]; Acinetobacter baumannii, 22 h, read-out: MIC A. baumannii (value in brackets)", "value": "> 128", "unit": "µg/mL"}, {"measurement": "MIC A. baumannii", "setting": "[5]; [8]", "value": "> 250", "unit": "µM"}, {"measurement": "EC50", "setting": "[5]; read-out: EC50 A. baumannii; mean ± standard error, n = 3, MHB", "value": "> 250", "unit": "µM"}, {"measurement": "MIC", "setting": "[6]; Staphylococcus aureus, 22 h, read-out: MIC MRSA (value in brackets)", "value": "> 128", "unit": "µg/mL"}, {"measurement": "MIC MRSA", "setting": "[6]; [9]", "value": "> 250", "unit": "µM"}, {"measurement": "EC50", "setting": "[6]; read-out: EC50 MRSA; mean ± standard error, n = 3, TSY", "value": "> 250", "unit": "µM"}, {"measurement": "MIC", "setting": "[7]; Enterococcus faecium, 22 h, read-out: MIC E. faecium (value in brackets)", "value": "> 128", "unit": "µg/mL"}, {"measurement": "MIC E. faecium", "setting": "[7]; [9]", "value": "> 250", "unit": "µM"}, {"measurement": "EC50", "setting": "[7]; read-out: EC50 E. faecium; mean ± standard error, n = 3, TSY", "value": "> 250", "unit": "µM"}]}
{"smiles": "NCC[C@H](O)C(=O)N[C@@H]1C[C@H](N)[C@@H](O[C@H]2O[C@H](CN)[C@@H](O)[C@H](O)[C@H]2O)[C@H](O)[C@H]1O[C@H]1O[C@H](CO)[C@@H](O)[C@H](N)[C@H]1O", "note": "[amikacin, reference compound]", "values": [{"measurement": "MIC", "setting": "[3]; Pseudomonas aeruginosa, DSM24068, 22 h, read-out: MIC P. aeruginosa", "value": "4.4 ± 1.3", "unit": "µM"}, {"measurement": "MIC", "setting": "[3]; Pseudomonas aeruginosa, DSM24068, 22 h, read-out: MIC P. aeruginosa (value in brackets)", "value": 2.6, "unit": "µg/mL"}]}
